Experimental data: ChEMBL document CHEMBL1201862, “PubChem BioAssay data set” (2004)
Calls of active or inactive are those of the source. Rule as the data show it: actives have a measured EC50 and inactives only a lower limit.

Target: T1, RNA-binding protein pos-1 (Caenorhabditis elegans, UniProt G5EF15)
T1 sequence (G5EF15 whole entry): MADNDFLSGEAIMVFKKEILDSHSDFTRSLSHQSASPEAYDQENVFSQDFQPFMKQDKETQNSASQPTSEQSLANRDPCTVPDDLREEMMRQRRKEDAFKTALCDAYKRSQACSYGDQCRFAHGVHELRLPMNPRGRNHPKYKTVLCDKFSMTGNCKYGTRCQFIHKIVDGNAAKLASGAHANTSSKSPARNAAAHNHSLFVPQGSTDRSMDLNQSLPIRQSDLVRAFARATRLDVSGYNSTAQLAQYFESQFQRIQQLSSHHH
Test: disruptors of C. elegans POS-1 RNA interaction – biochemical, fluorescence polarization, dose response (AID 1964);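 also: purified POS-1 fused to maltose binding protein made in E. coli; potency of compounds blocking POS-1 binding to fluorescent RNA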

## CN1CCc2cc3c(c4c2[C@H]1[C@H](O)c1ccccc1-4)OCO3
  EC50: 11.9 µM (active)
